Our source for the IC50 values is patent US11384063B2, “Modulators of estrogen receptor proteolysis and associated methods of use” (Arvinas Operations, Inc., priority 2017, dated 2022).

In the first test the target is T1, ERα (Homo sapiens, UniProt P03372).
T1 sequence (P03372 1-595): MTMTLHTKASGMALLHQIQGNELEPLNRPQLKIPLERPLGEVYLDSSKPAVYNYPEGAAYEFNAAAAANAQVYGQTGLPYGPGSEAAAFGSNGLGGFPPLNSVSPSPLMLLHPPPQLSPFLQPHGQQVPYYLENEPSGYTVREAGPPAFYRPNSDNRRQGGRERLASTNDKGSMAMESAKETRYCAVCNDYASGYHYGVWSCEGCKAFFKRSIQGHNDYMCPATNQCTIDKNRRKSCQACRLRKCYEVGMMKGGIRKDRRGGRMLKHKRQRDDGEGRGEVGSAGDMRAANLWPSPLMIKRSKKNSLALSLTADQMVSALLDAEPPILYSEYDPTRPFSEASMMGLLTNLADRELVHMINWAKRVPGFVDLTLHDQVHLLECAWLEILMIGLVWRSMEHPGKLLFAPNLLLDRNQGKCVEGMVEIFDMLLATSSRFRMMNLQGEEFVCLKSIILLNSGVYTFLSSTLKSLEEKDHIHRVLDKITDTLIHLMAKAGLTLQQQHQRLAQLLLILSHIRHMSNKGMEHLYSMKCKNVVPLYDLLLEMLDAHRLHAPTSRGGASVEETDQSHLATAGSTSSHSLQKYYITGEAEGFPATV
The experiment in a line: ERE luciferase reporter gene assay in T47D-KBluc cells (target engagement). The class given is cell-based. The arrangement: T47D human breast cancer cells stably transfected with estrogen responsive element/promoter/luciferase reporter gene; host or cells: T47D-KBluc cells. Particulars: 10% FBS, 24 hours, Table 1 cereblon centric PROTACs, read-out: ER-α Luciferase IC50. As to the method:
Chimeric molecules were assessed for target engagement in T47D cells using the commercial kit of ERE luciferase reporter gene assay. In the assay, 10% FBS was included and estrogen level was measured to be 10 pM.
ERE Luciferase Assay for Compounds in Table 1-3.
T47D-KBluc cells (ATCC #CRL_2865, T47D human breast cancer cells stably transfected with estrogen responsive element/promoter/luciferase reporter gene) were seeded into 96-well white opaque plates in RPMI growth medium supplemented with 10% fetal bovine serum and allowed to adhere overnight in a 37° C. humidified incubator. The following day, cells were treated with PROTACs in a 12-point concentration curve (top final concentration of 300 nM with subsequent concentrations being 3-fold less with 2 pM being the lowest concentration in the assay). Each PROTAC was tested independently in two experiments on 96-well plates. After 24 hours, media was removed and lysis buffer was added to the wells. Following lysis, Bright-Glo™ Luciferase Assay Substrate (Prornega, Madison Wis.) was added and the luciferase activity was measured using a Cytation 3 plate reader (TioTek™, Winooski, Vt.). Each compound was assayed in duplicates and the activity was calculated as IC50 using GraphPad Prism software (San Diego, Calif.).
On the technique in general: Reporter assays use an easily measured gene product as a stand-in for the process of interest.
Turning to `O=C1CC[C@H](N2Cc3cc(OCCOC4CCN(CCOc5ccc(Oc6c(-c7ccc(Br)cc7)sc7cc(O)ccc67)cc5)CC4)ccc3C2=O)C(=O)N1` [Compound 44], the IC50 worked out at 0.54 nM.
`O=C1CCC(N2Cc3cc(OCCCOCCCOCCOc4ccc(Oc5c(-c6ccc(Br)cc6)sc6cc(O)ccc56)cc4)ccc3C2=O)C(=O)N1` (stereo not drawn) [Compound 45]: the IC50 came to 6.5 nM.
Same read-out and setting: with `O=C1CCC(N2Cc3cc(CCC(=O)N4CCN(CCOc5ccc(Oc6c(-c7ccc(Br)cc7)sc7cc(O)ccc67)cc5)CC4)ccc3C2=O)C(=O)N1` (stereo not drawn) [Compound 46] the figure was 1.9 nM.
Same read-out and setting: with `O=C1CCC(N2Cc3cc(CCCCC(=O)N4CCN(CCOc5ccc(Oc6c(-c7ccc(Br)cc7)sc7cc(O)ccc67)cc5)CC4)ccc3C2=O)C(=O)N1` (stereo not drawn) [Compound 47] the figure was 0.86 nM; with `O=C1CCC(N2Cc3cc(OCCCOCCCOCCCCOc4ccc(Oc5c(-c6ccc(Br)cc6)sc6cc(O)ccc56)cc4)ccc3C2=O)C(=O)N1` (stereo not drawn) [Compound 48], 8.3 nM; with `O=C1CCC(N2C(=O)c3ccc(N4CCN(CCCOc5ccc(Oc6c(-c7ccc(Br)cc7)sc7cc(O)ccc67)cc5)CC4)cc3C2=O)C(=O)N1` (stereo not drawn) [Compound 49], 17.7 nM.
In the case of `O=C1CCC(N2Cc3cc(OC4CC5(CCN(CCOc6ccc(Oc7c(-c8ccc(Br)cc8)sc8cc(O)ccc78)cc6)CC5)C4)ccc3C2=O)C(=O)N1` (stereo not drawn) [Compound 50], the IC50 turned out to be 2.2 nM.
The same measure, in the same setting: with `O=C1CCC(N2C(=O)c3ccc(N4CCN(CCCCCCOc5ccc(Oc6c(-c7ccc(Br)cc7)sc7cc(O)ccc67)cc5)CC4)cc3C2=O)C(=O)N1` (stereo not drawn) [Compound 51] the figure was 26.2 nM.
Turning to `CC(COc1ccc(Oc2c(-c3ccc(Br)cc3)sc3cc(O)ccc23)cc1)N1CCN(CCCCc2ccc3c(c2)CN(C2CCC(=O)NC2=O)C3=O)CC1` (stereo not drawn) [Compound 53], the IC50 was determined as 0.6 nM.
As for `O=C1CCC(N2Cc3cc(N4CCN(CCCCCCOc5ccc(Oc6c(-c7ccc(Br)cc7)sc7cc(O)ccc67)cc5)CC4)ccc3C2=O)C(=O)N1` (stereo not drawn) [Compound 54], the IC50 was determined as 12.1 nM.
For the compound `O=C1CCC(N2Cc3cc(N4CCN(CCOc5ccc(Oc6c(-c7ccc(Br)cc7)sc7cc(O)ccc67)cc5)CC4)ccc3C2=O)C(=O)N1` (stereo not drawn) [Compound 55], the IC50 came out at 1.8 nM.
As to `O=C1CCC(N2C(=O)c3ccc(N4CCN(CCOc5ccc(Oc6c(-c7ccc(Br)cc7)sc7cc(O)ccc67)cc5)CC4)cc3C2=O)C(=O)N1` (stereo not drawn) [Compound 56], the IC50 was found to be 10.6 nM.
Take `O=C1CCC(N2Cc3cc(N4CCN(CCCCOc5ccc(Oc6c(-c7ccc(Br)cc7)sc7cc(O)ccc67)cc5)CC4)ccc3C2=O)C(=O)N1` (stereo not drawn) [Compound 58]: the IC50 is 6.6 nM.
Consider `O=C1CCC(N2Cc3cc(N4CCN(CCCOc5ccc(Oc6c(-c7ccc(Br)cc7)sc7cc(O)ccc67)cc5)CC4)ccc3C2=O)C(=O)N1` (stereo not drawn) [Compound 59], for which the IC50 worked out at 3.6 nM.
The same measure, in the same setting: with `O=C1CCC(N2C(=O)c3ccc(N4CCN(CCCCOc5ccc(Oc6c(-c7ccc(Br)cc7)sc7cc(O)ccc67)cc5)CC4)cc3C2=O)C(=O)N1` (stereo not drawn) [Compound 60] the figure was 29.9 nM.
The same measure, in the same setting: with `O=C1CCC(N2C(=O)c3ccc(NCCC4CCN(CCOc5ccc(Oc6c(-c7ccc(Br)cc7)sc7cc(O)ccc67)cc5)CC4)cc3C2=O)C(=O)N1` (stereo not drawn) [Compound 62] the figure was 8.5 nM.
Still for that read-out and setting: as for `O=C(CC1CCN(CCOc2ccc(Oc3c(-c4ccc(Br)cc4)sc4cc(O)ccc34)cc2)CC1)NCc1ccc2c(c1)CN(C1CCC(=O)NC1=O)C2=O` (stereo not drawn) [Compound 63], the figure is 0.82 nM; as for `O=C1CCC(N2Cc3cc(NCCCC4CCN(CCOc5ccc(Oc6c(-c7ccc(Br)cc7)sc7cc(O)ccc67)cc5)CC4)ccc3C2=O)C(=O)N1` (stereo not drawn) [Compound 64], 2.9 nM.
For `O=C1CCC(N2C(=O)c3ccc(OCCOCCOc4ccc(Oc5c(-c6ccc(Br)cc6)sc6cc(O)ccc56)cc4)cc3C2=O)C(=O)N1` (stereo not drawn) [Compound 66], the IC50 was 5.8 nM.
Take `O=C1CCC(N2C(=O)c3ccc(NCCOCCOCCOc4ccc(Oc5c(-c6ccc(Br)cc6)sc6cc(O)ccc56)cc4)cc3C2=O)C(=O)N1` (stereo not drawn) [Compound 67]: the IC50 is 11.4 nM.
Regarding `O=C1CCC(N2C(=O)c3ccc(NCCCC4CCN(CCOc5ccc(Oc6c(-c7ccc(Br)cc7)sc7cc(O)ccc67)cc5)CC4)cc3C2=O)C(=O)N1` (stereo not drawn) [Compound 68], the IC50 came to 5.9 nM.
As for `O=C1CCC(N2C(=O)c3ccc(N4CCN(CCCCCCCOc5ccc(Oc6c(-c7ccc(Br)cc7)sc7cc(O)ccc67)cc5)CC4)cc3C2=O)C(=O)N1` (stereo not drawn) [Compound 69], the IC50 came out at 103 nM.
The same measure, in the same setting: as for `O=C1CCC(N2C(=O)c3ccc(CCCOC4CCN(CCOc5ccc(Oc6c(-c7ccc(Br)cc7)sc7cc(O)ccc67)cc5)CC4)cc3C2=O)C(=O)N1` (stereo not drawn) [Compound 70], the figure is 1.6 nM; as for `O=C1CCC(N2Cc3cc(NCCCN4CCN(CCOc5ccc(Oc6c(-c7ccc(Br)cc7)sc7cc(O)ccc67)cc5)CC4)ccc3C2=O)C(=O)N1` (stereo not drawn) [Compound 71], 0.94 nM; as for `O=C1CCC(N2Cc3cc(NCCOCCOc4ccc(Oc5c(-c6ccc(Br)cc6)sc6cc(O)ccc56)cc4)ccc3C2=O)C(=O)N1` (stereo not drawn) [Compound 72], 3.1 nM.
On the same count and under the same terms, as for `O=C1CCC(N2Cc3cc(CCCOC4CCN(CCOc5ccc(Oc6c(-c7ccc(Br)cc7)sc7cc(O)ccc67)cc5)CC4)ccc3C2=O)C(=O)N1` (stereo not drawn) [Compound 73], the figure is 1.3 nM; as for `O=C1CCC(N2C(=O)c3ccc(NCCOCCOc4ccc(Oc5c(-c6ccc(Br)cc6)sc6cc(O)ccc56)cc4)cc3C2=O)C(=O)N1` (stereo not drawn) [Compound 75], 6.6 nM.
Consider `O=C1CCC(N2C(=O)c3ccc(OCCCOCCOc4ccc(Oc5c(-c6ccc(Br)cc6)sc6cc(O)ccc56)cc4)cc3C2=O)C(=O)N1` (stereo not drawn) [Compound 76], for which the IC50 is 17 nM.
As for `O=C1CCC(N2C(=O)c3ccc(OCCCOCCCOc4ccc(Oc5c(-c6ccc(Br)cc6)sc6cc(O)ccc56)cc4)cc3C2=O)C(=O)N1` (stereo not drawn) [Compound 77], the IC50 turned out to be 34.1 nM.
On to `O=C1CCC(N2C(=O)c3ccc(OCCCOCCOCCOc4ccc(Oc5c(-c6ccc(Br)cc6)sc6cc(O)ccc56)cc4)cc3C2=O)C(=O)N1` (stereo not drawn) [Compound 79], for which the IC50 worked out at 27.8 nM.
In the case of `O=C1CCC(N2C(=O)c3ccc(OCCCOCCCOCCCOc4ccc(Oc5c(-c6ccc(Br)cc6)sc6cc(O)ccc56)cc4)cc3C2=O)C(=O)N1` (stereo not drawn) [Compound 80], the IC50 is 37.4 nM.
Take `O=C1CCC(N2C(=O)c3ccc(NCCCOCCOc4ccc(Oc5c(-c6ccc(Br)cc6)sc6cc(O)ccc56)cc4)cc3C2=O)C(=O)N1` (stereo not drawn) [Compound 81]: the IC50 is 8.4 nM.
With `O=C1CCC(N2C(=O)c3ccc(NCCCOCCCOc4ccc(Oc5c(-c6ccc(Br)cc6)sc6cc(O)ccc56)cc4)cc3C2=O)C(=O)N1` (stereo not drawn) [Compound 82], the IC50 is 32.2 nM.
On the same count and under the same terms, with `O=C1CCC(N2C(=O)c3ccc(NCCCOCCOCCOc4ccc(Oc5c(-c6ccc(Br)cc6)sc6cc(O)ccc56)cc4)cc3C2=O)C(=O)N1` (stereo not drawn) [Compound 83] the figure was 44.9 nM.
Still for that read-out and setting: as for `O=C1CCC(N2C(=O)c3ccc(NCCCOCCCOCCCOc4ccc(Oc5c(-c6ccc(Br)cc6)sc6cc(O)ccc56)cc4)cc3C2=O)C(=O)N1` (stereo not drawn) [Compound 84], the figure is 30.9 nM; as for `O=C1CCC(N2Cc3cc(NCCCOCCOc4ccc(Oc5c(-c6ccc(Br)cc6)sc6cc(O)ccc56)cc4)ccc3C2=O)C(=O)N1` (stereo not drawn) [Compound 85], 6 nM.
With `O=C1CCC(N2Cc3cc(NCCOCCOCCOc4ccc(Oc5c(-c6ccc(Br)cc6)sc6cc(O)ccc56)cc4)ccc3C2=O)C(=O)N1` (stereo not drawn) [Compound 86], the IC50 turned out to be 11 nM.
The same measure, in the same setting: with `O=C1CCC(N2C(=O)c3ccc(OCCCOCCCOCCOc4ccc(Oc5c(-c6ccc(Br)cc6)sc6cc(O)ccc56)cc4)cc3C2=O)C(=O)N1` (stereo not drawn) [Compound 87] the figure was 21.5 nM.

Still in this test, the particulars now being: 10% FBS, 24 hours, Table 2 VHL centric PROTACs, read-out: IC50.
Take `Cc1ncsc1-c1ccc([C@H](C)NC(=O)[C@@H]2C[C@@H](O)CN2C(=O)[C@@H](NC(=O)COCCCOCCCOc2ccc(Oc3c(-c4ccc(F)cc4)sc4cc(O)ccc34)cc2)C(C)(C)C)cc1` [Compound 112, (2S,4R)-1-((S)-2-(2-(3-(3-(4-(2-(4-fluorophenyl)-6-hydroxybenzo[b]thiophen-3-yloxy)phenoxy)propoxy)propoxy)acetamido)-3,3-dimethylbutanoyl)-4-hydroxy-N—((S)-1-(4-(4-methylthiazol-5-yl)phenyl)ethyl)pyrrolidine-2-carboxamide]: the IC50 was found to be 15.8 nM.

Broadly, the IC50 is the concentration that inhibits the measured activity by half.
